Patent publication US6569881B1, “Substituted benzimidazole, the production thereof and the use thereof as means against parasitic protozoa” (Bayer Aktiengesellschaft, priority 1999, dated 2003)

Assays:
Assay type in all cases: in vivo, chicken chicks
[1] = system: Eimeria acervulina, Eimeria maxima and Eimeria tenella; assay: Cage experiments coccidiosis/chicks, mixed experimental infection; conditions: for dropping scores / lesion score: grade 0 to 6
Procedure: (§1) The efficacy of the compounds according to the invention can be confirmed, for example, in cage experiments using the following experimental arrangement, in which the animals are treated with the respective individual components and with the mixtures of the individual components.
(§2) An active compound-containing feed is prepared in such a way that the required amount of active compound is thoroughly mixed with a nutritionally balanced animal feed, e.g. with the chick feed indicated below.
(§3) 8 to 12 day-old male chicken chicks raised under coccidea-free conditions (e.g. LSL Brinkschulte/Senden) receive the compounds according to the invention (test substances) from 3 days before (day -3) the infection (=a.i.) until 8 (9) days after the infection (=p.i.) with the feed in the concentration indicated in ppm. Three animals are kept in each cage. Per dose, one to a number of groups of this type are employed. Infection is carried out by means of a stomach tube directly into the crop using approximately 100,000 sporulated oocysts of Eimeria acervulina and with in each case approximately 30,000 oocysts of E. maxima and 40,000 sporulated oocysts of E. tenella. These are highly virulent strains. The exact infectious dose is adjusted such that if possible one of three experimentally infected untreated chicks dies due to infection. For the assessment of the efficacy, the following criteria are taken into consideration: weight increase from the start of the experiment to the end of the experiment, death rate due to infection, macroscopic assessment of the faeces with respect to diarrhoea and excretion of blood on days 5 and 7 p.i. (grade 0 to 6), macroscopic grade of the intestinal mucous membrane, in particular of the cecums (grade 0 to 6) and the oocyst excretion and also the proportion (in %) of the oocysts sporulating within 24 hours. The number of oocysts in the faeces was determined with the aid of the McMaster counting chamber (see Engelbrecht and coworkers “Parasitologische Arbeitsmethoden in Medizin und Veterinärmedizin, [Parasitological working methods in medicine and veterinary medicine] Akademie-Verlag, Berlin (1965)). The individual findings are related to the untreated noninfected control groups and an overall grade is calculated (cf. A. Haberkorn (1986), pp. 263 to 270 in Research in Avian Coccidiosis ed L. R. McDougald, L. P. Joyner, P. L. Long Proceedings of the Georgia Coccidiosis Conference Nov, 18-20, 1985 Athens/Ga. USA).
In the column “ppm”, the concentration of the active compound employed in the feed is indicated in ppm.
In the column “mortality”, the percentage of the animals which have died is indicated under % and the number of the animals which have died/animals employed in the experiment is indicated under n.
In the column “weight % of not inf. control”, the ratio of the weight of the treated animals to the weight of the noninfected control group is indicated.
(§4) In the columns “dropping scores”, “lesion score” and “oocyst control”, individual details of the action are given.
In the column “% efficacy”, the overall rating is assessed; 0% means no action, 100% means complete action.

[2] = system: Eimeria acervulina; assay: Cage experiments coccidiosis/chicks, Eimeria acervulina part of the mixed infection; conditions: for Efficacy against Eimeria acervulina (grade): first symbol of cell; for Efficacy against Eimeria acervulina (grade): key: 2 = complete action; 1 = weak action; 0 = inactive; D = death
Procedure: as §1, §2, §3, §4

[3] = system: Eimeria maxima; assay: Cage experiments coccidiosis/chicks, Eimeria maxima part of the mixed infection; conditions: for Efficacy against Eimeria maxima (grade): second symbol of cell; for Efficacy against Eimeria maxima (grade): key: 2 = complete action; 1 = weak action; 0 = inactive; D = death
Procedure: as §1, §2, §3, §4

[4] = system: Eimeria tenella; assay: Cage experiments coccidiosis/chicks, Eimeria tenella part of the mixed infection; conditions: for Efficacy against Eimeria tenella (grade): third symbol of cell; for Efficacy against Eimeria tenella (grade): key: 2 = complete action; 1 = weak action; 0 = inactive; D = death
Procedure: as §1, §2, §3, §4

[5] = 5 ppm in feed, listed as Ex. 15
[6] = 10 ppm in feed, listed as Ex. 15
[7] = 2.5 ppm in feed, listed as Ex. 13
[8] = 5 ppm in feed, listed as Ex. 13
[9] = 10 ppm in feed, listed as Ex. 13

Structure (SMILES): Cc1oc(=O)oc1Cn1c(C(F)(F)F)nc2c(Cl)cc3c(c21)OC(F)(F)C(F)(F)O3 [Example 15]
- % efficacy tot. ([1]; 2.5 ppm in feed): 43%
- mortality % ([1]; 2.5 ppm in feed): 0%
- mortality n (died/employed) ([1]; 2.5 ppm in feed): 0/3
- oocyst in % of inf. control tot. ([1]; 2.5 ppm in feed): 48%
- weight % of not inf. control ([1]; 2.5 ppm in feed): 80%
- dropping scores ([1]; 2.5 ppm in feed): 1
- lesion score ([1]; 2.5 ppm in feed): 6
- % efficacy tot. ([1]; 5 ppm in feed): 75%
- mortality % ([1]; 5 ppm in feed): 0%
- mortality n (died/employed) ([1]; 5 ppm in feed): 0/3
- oocyst in % of inf. control tot. ([1]; 5 ppm in feed): 1%
- weight % of not inf. control ([1]; 5 ppm in feed): 85%
- dropping scores ([1]; 5 ppm in feed): 6
- lesion score ([1]; 5 ppm in feed): 1
- lesion score [1, 5]: 6
- % efficacy tot. [1, 5]: 23%
- oocyst in % of inf. control tot. [1, 5]: 31%
- weight % of not inf. control [1, 5]: 75%
- % efficacy tot. ([1]; 7.5 ppm in feed): 60%
- mortality % ([1]; 7.5 ppm in feed): 0%
- mortality n (died/employed) ([1]; 7.5 ppm in feed): 0/3
- oocyst in % of inf. control tot. ([1]; 7.5 ppm in feed): 13%
- weight % of not inf. control ([1]; 7.5 ppm in feed): >100%
- dropping scores ([1]; 7.5 ppm in feed): 6
- lesion score ([1]; 7.5 ppm in feed): 2
- % efficacy tot. ([1]; 10 ppm in feed): 91%
- mortality % ([1]; 10 ppm in feed): 0%
- mortality n (died/employed) ([1]; 10 ppm in feed): 0/3
- oocyst in % of inf. control tot. ([1]; 10 ppm in feed): 0%
- weight % of not inf. control ([1]; 10 ppm in feed): 82%
- dropping scores ([1]; 10 ppm in feed): 0
- lesion score ([1]; 10 ppm in feed): 0
- lesion score [1, 6]: 1
- % efficacy tot. [1, 6]: 89%
- oocyst in % of inf. control tot. [1, 6]: 1%
- weight % of not inf. control [1, 6]: 92%
- mortality % ([1]; 25 ppm in feed): 100%
- mortality n (died/employed) ([1]; 25 ppm in feed): 3/3
- dropping scores ([1]; 25 ppm in feed): 0
- oocyst in % of inf. control ac. ([2]; 2.5 ppm in feed): 48%
- oocyst in % of inf. control ac. ([2]; 5 ppm in feed): 2%
- oocyst in % of inf. control ac. [2, 5]: 49%
- oocyst in % of inf. control ac. ([2]; 7.5 ppm in feed): 16%
- oocyst in % of inf. control ac. ([2]; 10 ppm in feed): 0%
- oocyst in % of inf. control ac. [2, 6]: 2%
- Efficacy against Eimeria acervulina (grade) ([2]; Dose 5 ppm): 1
- Efficacy against Eimeria acervulina (grade) ([2]; Dose 10 ppm): 2
- Efficacy against Eimeria acervulina (grade) ([2]; Dose 25 ppm): 2
- oocyst in % of inf. control max. ([3]; 2.5 ppm in feed): 0%
- oocyst in % of inf. control max. ([3]; 5 ppm in feed): 2%
- oocyst in % of inf. control max. [3, 5]: 0%
- oocyst in % of inf. control max. ([3]; 7.5 ppm in feed): 0%
- oocyst in % of inf. control max. ([3]; 10 ppm in feed): 0%
- Efficacy against Eimeria maxima (grade) ([3]; Dose 5 ppm): 0
- Efficacy against Eimeria maxima (grade) ([3]; Dose 10 ppm): 1
- Efficacy against Eimeria maxima (grade) ([3]; Dose 25 ppm): 2
- oocyst in % of inf. control ten. ([4]; 2.5 ppm in feed): 48%
- oocyst in % of inf. control ten. ([4]; 5 ppm in feed): 0%
- oocyst in % of inf. control ten. [4, 5]: 23%
- oocyst in % of inf. control ten. ([4]; 7.5 ppm in feed): 12%
- oocyst in % of inf. control ten. ([4]; 10 ppm in feed): 0%
- oocyst in % of inf. control ten. [4, 6]: 1%
- Efficacy against Eimeria tenella (grade) ([4]; Dose 5 ppm): 1
- Efficacy against Eimeria tenella (grade) ([4]; Dose 10 ppm): 2
- Efficacy against Eimeria tenella (grade) ([4]; Dose 25 ppm): 1

Structure (SMILES): Cc1oc(=O)oc1Cn1c(C(F)(F)F)nc2cc(C(F)(F)F)c(C(F)(F)F)cc21 [Example 13]
- % efficacy tot. ([1]; 2.5 ppm in feed): 15%
- mortality % ([1]; 2.5 ppm in feed): 33%
- mortality n (died/employed) ([1]; 2.5 ppm in feed): 1/3
- oocyst in % of inf. control tot. ([1]; 2.5 ppm in feed): 41%
- weight % of not inf. control ([1]; 2.5 ppm in feed): 61%
- dropping scores ([1]; 2.5 ppm in feed): 6
- lesion score ([1]; 2.5 ppm in feed): 6
- % efficacy tot. [1, 7]: 16%
- mortality % [1, 7]: 0%
- mortality n (died/employed) [1, 7]: 0/3
- oocyst in % of inf. control tot. [1, 7]: 57%
- % efficacy tot. ([1]; 5 ppm in feed): 50%
- mortality % ([1]; 5 ppm in feed): 33%
- mortality n (died/employed) ([1]; 5 ppm in feed): 1/3
- oocyst in % of inf. control tot. ([1]; 5 ppm in feed): 4%
- weight % of not inf. control ([1]; 5 ppm in feed): 74%
- dropping scores ([1]; 5 ppm in feed): 6
- lesion score ([1]; 5 ppm in feed): 6
- lesion score [1, 8]: 4.6
- % efficacy tot. [1, 8]: 32%
- mortality % [1, 8]: 0%
- mortality n (died/employed) [1, 8]: 0/3
- oocyst in % of inf. control tot. [1, 8]: 26%
- % efficacy tot. ([1]; 7.5 ppm in feed): 74%
- mortality % ([1]; 7.5 ppm in feed): 0%
- mortality n (died/employed) ([1]; 7.5 ppm in feed): 0/3
- oocyst in % of inf. control tot. ([1]; 7.5 ppm in feed): 0%
- weight % of not inf. control ([1]; 7.5 ppm in feed): 81%
- dropping scores ([1]; 7.5 ppm in feed): 6
- lesion score ([1]; 7.5 ppm in feed): 5.3
- % efficacy tot. ([1]; 10 ppm in feed): 73%
- mortality % ([1]; 10 ppm in feed): 0%
- mortality n (died/employed) ([1]; 10 ppm in feed): 0/3
- oocyst in % of inf. control tot. ([1]; 10 ppm in feed): 0%
- weight % of not inf. control ([1]; 10 ppm in feed): 83%
- dropping scores ([1]; 10 ppm in feed): 6
- lesion score ([1]; 10 ppm in feed): 4.3
- lesion score [1, 9]: 5.3
- % efficacy tot. [1, 9]: 78%
- weight % of not inf. control [1, 9]: 76%
- oocyst in % of inf. control ac. ([2]; 2.5 ppm in feed): 55%
- oocyst in % of inf. control ac. [2, 7]: 33%
- oocyst in % of inf. control ac. ([2]; 5 ppm in feed): 5%
- oocyst in % of inf. control ac. [2, 8]: 25%
- oocyst in % of inf. control ac. ([2]; 7.5 ppm in feed): 0%
- oocyst in % of inf. control ac. ([2]; 10 ppm in feed): 0%
- Efficacy against Eimeria acervulina (grade) ([2]; Dose 5 ppm): 2
- Efficacy against Eimeria acervulina (grade) ([2]; Dose 10 ppm): 2
- Efficacy against Eimeria acervulina (grade) ([2]; Dose 25 ppm): D D D
- oocyst in % of inf. control max. ([3]; 2.5 ppm in feed): 0%
- oocyst in % of inf. control max. [3, 7]: 55%
- oocyst in % of inf. control max. ([3]; 5 ppm in feed): 0%
- oocyst in % of inf. control max. [3, 8]: 36%
- oocyst in % of inf. control max. ([3]; 7.5 ppm in feed): 0%
- oocyst in % of inf. control max. ([3]; 10 ppm in feed): 0%
- Efficacy against Eimeria maxima (grade) ([3]; Dose 5 ppm): 1
- Efficacy against Eimeria maxima (grade) ([3]; Dose 10 ppm): 2
- Efficacy against Eimeria maxima (grade) ([3]; Dose 25 ppm): D D D
- oocyst in % of inf. control ten. ([4]; 2.5 ppm in feed): 27%
- oocyst in % of inf. control ten. [4, 7]: >100%
- oocyst in % of inf. control ten. ([4]; 5 ppm in feed): 3%
- oocyst in % of inf. control ten. [4, 8]: 27%
- oocyst in % of inf. control ten. ([4]; 7.5 ppm in feed): 0%
- oocyst in % of inf. control ten. ([4]; 10 ppm in feed): 0%
- Efficacy against Eimeria tenella (grade) ([4]; Dose 5 ppm): 1
- Efficacy against Eimeria tenella (grade) ([4]; Dose 10 ppm): 2
- Efficacy against Eimeria tenella (grade) ([4]; Dose 25 ppm): D D D
